Consider twelve compounds from US20140005163A1 (NOVARTIS AG, priority 2010, published 2014).

SMILES strings stand for the structures. Where only a bound is given, the exact number is not on record here.

The target in one assay is T1, PI3K beta (Homo sapiens, UniProt P42338).
T1 construct: for the full-length p110-b subunit are generated and fused by overlapping PCR; p85(iSH2) fusion partner (see partner chain) (N); His tag (C); made in house; host or cells: baculovirus; Tn5 (Trichoplusia ni) or TiniPro insect cells
T1 sequence (P42338 with tags, fused parts or gaps limits assumed): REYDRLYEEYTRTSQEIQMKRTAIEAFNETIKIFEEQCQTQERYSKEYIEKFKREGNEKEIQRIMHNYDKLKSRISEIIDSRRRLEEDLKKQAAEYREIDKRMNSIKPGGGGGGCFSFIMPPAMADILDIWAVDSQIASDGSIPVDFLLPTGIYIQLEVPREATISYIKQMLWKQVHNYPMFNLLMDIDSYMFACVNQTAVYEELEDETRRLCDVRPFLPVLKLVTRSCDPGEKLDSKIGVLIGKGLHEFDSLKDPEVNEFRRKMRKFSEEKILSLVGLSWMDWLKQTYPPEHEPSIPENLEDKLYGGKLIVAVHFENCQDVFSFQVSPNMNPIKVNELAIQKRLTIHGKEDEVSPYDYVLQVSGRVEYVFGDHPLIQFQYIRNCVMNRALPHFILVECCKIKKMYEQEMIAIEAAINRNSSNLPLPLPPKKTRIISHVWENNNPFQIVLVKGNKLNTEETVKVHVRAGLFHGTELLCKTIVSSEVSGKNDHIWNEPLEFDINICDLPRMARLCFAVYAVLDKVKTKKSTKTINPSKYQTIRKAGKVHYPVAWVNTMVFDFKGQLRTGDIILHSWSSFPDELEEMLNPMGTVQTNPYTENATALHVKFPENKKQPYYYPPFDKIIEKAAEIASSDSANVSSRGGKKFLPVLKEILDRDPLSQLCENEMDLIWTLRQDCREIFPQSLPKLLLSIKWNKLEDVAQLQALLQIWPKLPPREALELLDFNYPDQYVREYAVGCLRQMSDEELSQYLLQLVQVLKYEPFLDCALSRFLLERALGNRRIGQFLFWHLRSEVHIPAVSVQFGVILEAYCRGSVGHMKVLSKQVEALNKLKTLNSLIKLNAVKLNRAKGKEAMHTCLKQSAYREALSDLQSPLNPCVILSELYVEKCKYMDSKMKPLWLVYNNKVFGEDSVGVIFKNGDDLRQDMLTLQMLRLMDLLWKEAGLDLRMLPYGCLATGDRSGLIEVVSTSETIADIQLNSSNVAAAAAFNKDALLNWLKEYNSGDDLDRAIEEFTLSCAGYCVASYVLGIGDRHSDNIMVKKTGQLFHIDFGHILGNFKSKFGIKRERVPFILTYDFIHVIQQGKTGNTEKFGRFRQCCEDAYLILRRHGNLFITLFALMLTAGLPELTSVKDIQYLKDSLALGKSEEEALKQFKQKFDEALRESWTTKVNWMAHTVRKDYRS
Description: PI3K beta kinase assay (Kinase-Glo luminescence). In kind it is biochemical. The procedure, abridged:
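Enzyme: BV949 p85(iSH2)-Gly linker-p110β FL-His, 25 nM. Substrate: PI 10 μg/mL. ATP: 1 μM, added to start. Buffer: Tris pH 7.5 10 mM, MgCl2 3 mM, NaCl 50 mM, CHAPS 0.05%, DTT 1 mM. RT, 60 min. Readout: Kinase-Glo. IC50 by 4-parameter fit.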
(Kinase-Glo reads ATP consumption through a luciferase reaction.)

The target in the next assay is T2, PI3K gamma (Homo sapiens, UniProt P48736).
T2 construct: His tag (C); made in house; host or cells: baculovirus (pVL1393); Tn5 or TiniPro insect cells; construct from Roger Williams lab, MRC LMB
T2 sequence (P48736 144-1102 limits assumed): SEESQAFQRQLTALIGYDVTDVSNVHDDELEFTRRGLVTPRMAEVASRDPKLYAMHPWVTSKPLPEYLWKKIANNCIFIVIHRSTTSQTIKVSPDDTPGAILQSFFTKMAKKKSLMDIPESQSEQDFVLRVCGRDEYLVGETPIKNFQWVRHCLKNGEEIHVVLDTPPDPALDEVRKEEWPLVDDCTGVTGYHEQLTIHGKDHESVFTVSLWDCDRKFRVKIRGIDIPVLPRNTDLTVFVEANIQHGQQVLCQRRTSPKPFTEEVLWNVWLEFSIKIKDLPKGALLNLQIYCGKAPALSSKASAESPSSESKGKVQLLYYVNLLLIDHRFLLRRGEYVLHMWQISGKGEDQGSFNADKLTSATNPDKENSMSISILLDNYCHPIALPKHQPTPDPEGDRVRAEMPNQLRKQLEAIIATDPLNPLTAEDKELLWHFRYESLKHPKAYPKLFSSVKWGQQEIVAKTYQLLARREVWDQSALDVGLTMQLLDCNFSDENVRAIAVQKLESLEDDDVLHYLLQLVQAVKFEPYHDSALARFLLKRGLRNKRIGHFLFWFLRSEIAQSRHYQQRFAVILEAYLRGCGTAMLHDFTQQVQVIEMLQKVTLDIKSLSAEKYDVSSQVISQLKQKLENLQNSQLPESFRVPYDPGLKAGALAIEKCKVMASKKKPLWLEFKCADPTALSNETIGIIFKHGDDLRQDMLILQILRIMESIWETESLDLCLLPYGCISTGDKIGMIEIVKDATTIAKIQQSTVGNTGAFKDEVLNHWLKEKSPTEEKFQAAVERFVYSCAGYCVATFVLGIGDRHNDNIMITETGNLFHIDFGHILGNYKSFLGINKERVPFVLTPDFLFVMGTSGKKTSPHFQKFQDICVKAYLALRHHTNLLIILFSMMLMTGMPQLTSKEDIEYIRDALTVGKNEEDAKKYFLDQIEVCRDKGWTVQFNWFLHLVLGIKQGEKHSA
Briefly: PI3K gamma kinase assay (Kinase-Glo luminescence). In kind it is biochemical. The procedure, abridged: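 Luminescent ATP-depletion (Kinase-Glo) assay with 150 nM PI3Kγ, 1 μM ATP and 10 μg/mL phosphatidylinositol in 10 mM Tris-HCl pH 7.5, 3 mM MgCl2, 50 mM NaCl, 0.05% CHAPS, 1 mM DTT; 120 min at room temperature. Eight-point dilutions; IC50 by four-parameter logistic fit.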

Assay [1] deals with PKB Ser473 phosphorylation in Rat1-myr-HA-p110 alpha cells. Briefly: Reverse protein array assay, PKB Ser473 phosphorylation in Rat1-myr-p110 alpha cells. The format is cell-based. The settings on record: 0.5 h, pAkt Ser473, 30 minutes compound incubation, read-out: p-PKB IC50. The procedure, abridged:
(§1)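 Measured: PKB Ser473 phosphorylation by reverse protein array in Rat1 cells expressing myr-HA-p110 alpha, beta or delta, after 30 min compound treatment at 37 °C with 0.2% DMSO vehicle.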

The test system of assay [2] is PKB Ser473 phosphorylation in Rat1-myr-HA-p110 beta cells. Description: Reverse protein array assay, PKB Ser473 phosphorylation in Rat1-myr-p110 beta cells. The format is cell-based. The settings on record: 0.5 h, pAkt Ser473, 30 minutes incubation, read-out: p-PKB IC50. The procedure, abridged:
as §1

The test system of assay [3] is PKB Ser473 phosphorylation in Rat1-myr-HA-p110 delta cells. Briefly: Reverse protein array assay, PKB Ser473 phosphorylation in Rat1-myr-p110 delta cells. The settings on record: read-out: p-PKB IC50. The format is cell-based. The procedure, abridged:
as §1

As to `CN(C)c1ccc(-c2ccc3ncc4c(c3c2)n(-c2cn(C)nc2Cl)c(=O)n4C)cn1` [Example 4.9, 1-(3-Chloro-1-methyl-1H-pyrazol-4-yl)-8-(6-dimethylamino-pyridin-3-yl)-3-methyl-1,3-dihydro-imidazo[4,5-c]quinolin-2-one], the IC50 worked out at 59 nM on PI3K beta; 150 nM at PI3K gamma; 5 nM in assay [1]; 6 nM in assay [2]; 8 nM in assay [3].

On to `COc1ccc(-c2ccc3ncc4c(c3c2)n(-c2cn(C)nc2C)c(=S)n4C)cc1OC` [Example 128.2, 8-(3,4-Dimethoxy-phenyl)-1-(1,3-dimethyl-1H-pyrazol-4-yl)-3-methyl-1,3-dihydro-imidazo[4,5-c]quinoline-2-thione], for which the IC50 on PI3K beta is 17 nM; at PI3K gamma, 117 nM; in assay [1], under 5 nM; in assay [2], 6 nM; in assay [3] it was 10 nM.

In the case of `CCn1cc(-n2c(=O)n(C)c3cnc4ccc(-c5ccc(OC)c(OC)c5)nc4c32)c(C)n1` [Example 254, 8-(3,4-Dimethoxy-phenyl)-1-(1-ethyl-3-methyl-1H-pyrazol-4-yl)-3-methyl-1,3-dihydro-1,3,5,9-tetraaza-cyclopenta[a]naphthalen-2-one], the IC50 at PI3K beta is 62 nM; at PI3K gamma, 145 nM; in assay [1] it was 30 nM; in assay [2], 26 nM; in assay [3], 116 nM.

For `CNS(=O)(=O)c1cccc(-c2ccc3ncc4c(c3c2)n(-c2cn(C)nc2C)c(=O)n4C)c1` [Example 39, 3-[1-(1,3-Dimethyl-1H-pyrazol-4-yl)-3-methyl-2-oxo-2,3-dihydro-1H-imidazo[4,5-c]quinolin-8-yl]-N-methyl-benzenesulfonamide], the half-maximal inhibitory concentration (IC50) at PI3K beta is 13 nM; at PI3K gamma it was 75 nM; in assay [1], 35 nM; in assay [2], 64 nM; in assay [3], 84 nM.

Take `Cc1nn(C)cc1-n1c(=O)n(C)c2cnc3ccc(-c4cccc(NS(C)(=O)=O)c4)cc3c21` [Example 47, N-{3-[1-(1,3-dimethyl-1H-pyrazol-4-yl)-3-methyl-2-oxo-2,3-dihydro-1H-imidazo[4,5-c]quinolin-8-yl]-phenyl}-methanesulfonamide]: the IC50 on PI3K beta is 811 nM; at PI3K gamma, 701 nM; in assay [1] it was 73 nM; in assay [2], 196 nM; in assay [3] it was 839 nM.

Turning to `Cc1nn(C)cc1-n1c(=O)n(C)c2cnc3ccc(-c4ccc(-c5ncc[nH]5)cc4)cc3c21` [Example 77, 1-(1,3-Dimethyl-1H-pyrazol-4-yl)-8-[4-(1H-imidazol-2-yl)-phenyl]-3-methyl-1,3-dihydro-imidazo[4,5-c]quinolin-2-one], the half-maximal inhibitory concentration (IC50) at PI3K beta stood at 24 nM; at PI3K gamma, 75 nM; in assay [1] it was 7 nM; in assay [2] it was 8 nM; in assay [3], 22 nM.

On to `CNc1ncc(-c2ccc3ncc4c(c3c2)n(-c2cn(C)nc2Cl)c(=O)n4C)cc1C` [Example 119, 1-(3-Chloro-1-methyl-1H-pyrazol-4-yl)-3-methyl-8-(5-methyl-6-methylamino-pyridin-3-yl)-1,3-dihydro-imidazo[4,5-c]quinolin-2-one], for which the IC50 at PI3K beta came to 20 nM; in assay [1], 6 nM; in assay [2], 10 nM; in assay [3], 7 nM.

As to `Cc1nn(C)cc1-n1c(=O)n(C)c2cnc3ccc(-c4cnc(N)c(C(F)(F)F)c4)cc3c21` [Example 25.1, 8-(6-Amino-5-trifluoromethyl-pyridin-3-yl)-1-(1,3-dimethyl-1H-pyrazol-4-yl)-3-methyl-1,3-dihydro-imidazo[4,5-c]quinolin-2-one], the IC50 at PI3K beta amounted to 19 nM; in assay [1], 5 nM; in assay [2], 6 nM; in assay [3], 9 nM.

As to `Cc1nn(C(C)C)cc1-n1c(=O)n(C)c2cnc3ccc(-c4cnc(Cl)c(N)c4)cc3c21` [Example 152.1, 8-(5-Amino-6-chloro-pyridin-3-yl)-1-(1-isopropyl-3-methyl-1H-pyrazol-4-yl)-3-methyl-1,3-dihydro-imidazo[4,5-c]quinolin-2-one], the IC50 at PI3K beta was 79 nM; in assay [1], 7 nM; in assay [2], 6 nM; in assay [3], 16 nM.

As to `CNc1ccc(-c2ccc3ncc4c(c3c2)n(-c2cn(C(C)C)nc2C)c(=S)n4C)cn1` [Example 241, 1-(1-isopropyl-3-methyl-1H-pyrazol-4-yl)-3-methyl-8-(6-(methylamino)pyridin-3-yl)-1H-imidazo[4,5-c]quinoline-2(3H)-thione], the 50% inhibitory concentration (IC50) at PI3K beta was 184 nM; in assay [1] it was under 5 nM; in assay [2], under 5 nM; in assay [3] it was 9 nM.

Consider `Cc1nn(C)cc1-n1c(=S)n(C)c2cnc3ccc(-c4cccnc4)cc3c21` [Example 128.1, 1-(1,3-Dimethyl-1H-pyrazol-4-yl)-3-methyl-8-pyridin-3-yl-1,3-dihydro-imidazo[4,5-c]quinoline-2-thione], for which the IC50 at PI3K beta was found to be 35 nM; at PI3K gamma, 142 nM; in assay [1], 5 nM; in assay [2], 27 nM; in assay [3], 127 nM.

Regarding `CCOCc1cc(-c2ccc3ncc4c(c3c2)n(-c2cn(C)nc2Cl)c(=O)n4C)cnc1N` [Example 166.4, 8-(6-Amino-5-ethoxymethyl-pyridin-3-yl)-1-(3-chloro-1-methyl-1H-pyrazol-4-yl)-3-methyl-1,3-dihydro-imidazo[4,5-c]quinolin-2-one], the concentration for half-maximal inhibition (IC50) at PI3K beta came out at 10 nM; in assay [1], 5 nM; in assay [2], 11 nM; in assay [3], 11 nM.

Usually IC50 stands for the concentration that inhibits the measured activity by half.
